# Where a SMILES comes first, the peptide text is derived from it. [ ]: non-standard residue; d: D form. dPhe(4-Cl) = N[C@H](Cc1ccc(Cl)cc1)C(=O)O; d2Nal = N[C@H](Cc1ccc2ccccc2c1)C(=O)O; Lys(iPr) = CC(C)NCCCC[C@H](N)C(=O)O; NMeY = CN[C@@H](Cc1ccc(O)cc1)C(=O)O; d3Pal = N[C@H](Cc1cccnc1)C(=O)O
# Conditions: rat, in vivo
# Description: On day 30, the LHRH agonist Lupron™ (leuprolide) was injected into the rats. Plasma testosterone levels (in ng/ml; indicated by the open boxes in FIG. 2) were determined at various time points as a measure of the activity of the LHRH antagonist in the animal. Plasma levels of PPI-149 (in ng/ml) were also monitored in the animals (indicated by the closed boxes in FIG. 2).
structure (smiles),measurement,value
"CC(=O)N[C@H](Cc1ccc2ccccc2c1)C(=O)N[C@H](Cc1ccc(Cl)cc1)C(=O)N[C@H](Cc1cccnc1)C(=O)N[C@@H](CO)C(=O)N(C)[C@@H](Cc1ccc(O)cc1)C(=O)N[C@H](CC(N)=O)C(=O)N[C@@H](CC(C)C)C(=O)N[C@@H](CCCCNC(C)C)C(=O)N1CCC[C@H]1C(=O)N[C@H](C)C(N)=O [PPI-149, Ac-D-Nal^1,4-Cl-D-Phe^2, D-Pal^3, N-Me-Tyr^5, D-Asn^6, Lys(iPr)^8, D-Ala^10-LHRH] (Ac-[d2Nal][dPhe(4-Cl)][d3Pal]S[NMeY][dN]L[Lys(iPr)]P[dA]-NH2)",day beyond which PPI-149 could not be detected in plasma,~8 days

# Reference: patent US6699833B1, “Pharmaceutical formulations for sustained drug delivery” (Praecis Pharmaceuticals, Inc., priority 1996, dated 2004)
